Reference: patent publication US20250387403A1, “SELECTIVE SIGMA-2 RECEPTOR LIGANDS AS MODULATORS OF TMEM97” (BOARD OF REGENTS, THE UNIVERSITY OF TEXAS SYSTEM, priority 2022, published 2025)

Assays:
σ2R/TMEM97 [1] = molecular target: T1, σ2R/TMEM97 (Homo sapiens, UniProt Q5BJF2)
Experimental: (§1) Ki values are calculated from best-fit IC50 determinations performed in triplicate.
(§2) The binding affinities (Ki) of all synthetic compounds for σ2R/TMEM97 and σ1R were determined at the Psychoactive Drug Screening Program. Prior to the identification of σ2R as TMEM97, Ki values were measured using σ2R sourced from rat PC12 cells and σ1R sourced from guinea pig brain, but subsequently σ2R/TMEM97 and σ1R binding isotherms were determined using human protein obtained by transfection in HEK293T cells.

[2] = test system: primary cortical neurons transfected with plasmids expressing mHTT (Htt-N586-82Q); test: mHTT-induced toxicity in transfected primary cortical neurons (HD cell model); type: cell-based; conditions: for neuroprotection against mHTT-induced neuronal toxicity: concentrations 0.01-10 μM; for intrinsic toxicity: primary cortical neurons
Experimental: Toward testing the hypothesis that selective modulators of σ2R/TMEM97 have neuroprotective attributes in Huntington's disease, a small panel of compounds were evaluated with differing affinities and selectivities for σ2R/TMEM97 in a primary neuron model of HD. […] In the present disclosure, these compounds are tested in an HD cell model to assess the effects of these compounds upon mHTT-induced neuronal toxicity. Briefly, primary neurons were co-transfected with plasmid expression of a 586 N-terminal Htt polypeptide with either normal Q (Htt-N586-22Q) or expanded Q (Htt-N586-82Q) repeats and green fluorescent protein (GFP).
Stock solutions of σ2R/TMEM97 modulators were prepared by dissolving the compound in DMSO to a concentration of 10 mM. For the in vitro assays, the stock solution was diluted with culture medium (1:1000) to a working concentration of 10 μM of σ2R/TMEM97 modulator. Serial dilutions were then performed using culture medium to prepare other concentrations of the modulator. The final DMSO concentration is less than 0.1%. The vehicle group was performed using 0.1% DMSO in culture medium.
To assess the possible neuroprotective effects of selective σ2R/TMEM97 modulators in neurodegenerative processes associated with HD, a cell model was used that has been previously described (Arbez et al, 2017).

σ2R/TMEM97 [3] = molecular target: σ2R/TMEM97 (Rattus norvegicus (Rat), UniProt Q5U3Y7); test: Receptor binding assay (PDSP), rat σ2R/TMEM97 (PC12 cells), [3H]-ditolylguanidine competition
Experimental: as §1, §2

σ2R/TMEM97 [4] = molecular target: T1, σ2R/TMEM97; test: Receptor binding assay (PDSP), human σ2R/TMEM97, [3H]-ditolylguanidine competition; conditions: for affinity (Ki) for σ2R/TMEM97, in words: human σ2R/TMEM97; for selectivity for σ2R/TMEM97 vs σ1R, in words: human σ2R/TMEM97 vs human σ1R
Experimental: as §1, §2

[5] = test system: spared nerve injury (SNI) model; conditions: earlier studies (Sahn et al, 2017); cited from earlier work

T1 sequence (Q5BJF2 whole entry, looked up): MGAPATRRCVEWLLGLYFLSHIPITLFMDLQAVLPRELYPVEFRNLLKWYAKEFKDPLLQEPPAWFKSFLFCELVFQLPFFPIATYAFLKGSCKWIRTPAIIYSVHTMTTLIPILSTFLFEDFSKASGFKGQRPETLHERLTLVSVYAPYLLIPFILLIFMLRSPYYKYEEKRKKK
Chain of σ2R/TMEM97 (Rattus norvegicus (Rat), UniProt Q5U3Y7) (Q5U3Y7 whole entry): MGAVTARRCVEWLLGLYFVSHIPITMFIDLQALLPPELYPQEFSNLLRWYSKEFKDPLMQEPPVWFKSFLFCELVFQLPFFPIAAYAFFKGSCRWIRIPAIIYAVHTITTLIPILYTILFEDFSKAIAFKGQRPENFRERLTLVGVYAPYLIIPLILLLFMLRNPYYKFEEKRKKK

Compound | Ki (σ2R/TMEM97 [1]) [nM] | also measured
CS(=O)(=O)c1ccc(-c2ccc3c(c2)[C@@H]2CC3CCN2C(=O)C2CCN(CCO)CC2)cc1 | 834 | –
O=C(N1CCN(CCO)CC1)N1CCC2C[C@H]1c1cc(-c3ccc(C(F)(F)F)cc3)ccc12 | 955 | –
COCCN1CC(C(=O)N2CCC3C[C@H]2c2cc(-c4ccc(C(F)(F)F)cc4)ccc23)C1 | 17.6 | –
O=C(C1CN(CCO)C1)N1CCC2C[C@H]1c1cc(-c3ccc(C(F)(F)F)cc3)ccc12 | 15.3 | –
OCCCN1CC[C@@H]2CC1c1cc(-c3ccnc(F)c3)ccc12 | 802 | –
CS(=O)(=O)c1ccc(-c2ccc3c(c2)C2C[C@H]3CCN2CCCO)cc1 | 1180 | –
OCCCN1CC[C@@H]2CC1c1cc(-c3cccc(OC(F)(F)F)c3)ccc12 | 48.3 | –
CS(=O)(=O)c1cccc(-c2ccc3c(c2)C2C[C@H]3CCN2CCCO)c1 | 1850 | –
CN(C)[C@H]1CC[C@@H](N2CCC3C[C@H]2c2cc(-c4cccc(C(F)(F)F)c4)ccc23)CC1 | 9.5 | –
OCCCN1CCC2CC1c1cc(-c3ccc(C(F)(F)F)cc3)ccc12 (stereo not shown) | 11 | –
OCCN1CCC2CC1c1cc(-c3ccc(C(F)(F)F)cc3)ccc12 (stereo not shown) | 32 | –
FC(F)(F)c1ccc(-c2ccc3c(c2)C2CC3CCN2C2CCCC2)cc1 (stereo not shown) | 82.3 | –
FC(F)(F)c1ccc(-c2ccc3c(c2)C2CC3CCN2C2CCC2)cc1 (stereo not shown) | 213 | –
CCCN1CCC2CC1c1cc(-c3cccc(C(F)(F)F)c3)ccc12 (stereo not shown) | 112 | –
OC(CF)CN1CCC2CC1c1cc(-c3ccc(C(F)(F)F)cc3)ccc12 (stereo not shown) | 34 | –
FC(F)(F)c1cccc(-c2ccc3c(c2)C2CC3CCN2)c1 (stereo not shown) | 57 | –
O=C(N1CCC2(CC1)CN(CCO)C2)N1CCC2C[C@H]1c1cc(-c3ccc(C(F)(F)F)cc3)ccc12 | 91.6 | –
O=C(N1CC2(CN(CCO)C2)C1)N1CCC2C[C@H]1c1cc(-c3ccc(C(F)(F)F)cc3)ccc12 | 441 | –
O=C(N1CC2CC(C1)N2CCO)N1CCC2C[C@H]1c1cc(-c3ccc(C(F)(F)F)cc3)ccc12 | 62.9 | –

Compound | Ki (σ2R/TMEM97 [1]) [nM] | also measured
FC(F)(F)Oc1cccc(-c2ccc3c(c2)C2CC3CCN2C2CCCCC2)c1 (stereo not shown) | 79 | –
CN(CCO)CCC(=O)N1CCC2CC1c1cc(-c3cccc(C(F)(F)F)c3)ccc12 (stereo not shown) | 4.3 | –
Fc1ccc(-c2ccc3c(c2)C2CC3CCCN2C2CCCC2)cc1 (stereo not shown) | 153 | –
Cc1ccc(-c2ccc3c(c2)C2CC3CCCN2C2CCCC2)cc1 (stereo not shown) | 187 | –
N#Cc1ccc(-c2ccc3c(c2)C2CC3CCCN2C2CCCC2)cc1 (stereo not shown) | 119 | –
COc1ccc(-c2ccc3c(c2)C2CC3CCCN2C2CCCC2)cc1 (stereo not shown) | 194 | –
FC(F)(F)c1ccc(-c2ccc3c(c2)C2CC3CCCN2C2CCCC2)cn1 (stereo not shown) | 336 | –
OC1CCC(N2CCCC3CC2c2cc(-c4ccc(C(F)(F)F)cc4)ccc23)CC1 (stereo not shown) | 39 | –
CC(C)N1CCCC2CC1c1cc(-c3ccc(C(F)(F)F)cc3)ccc12 (stereo not shown) | 87 | –
FC(F)(F)c1ccc(-c2ccc3c(c2)C2CC3CCCN2CC2CCCC2)cc1 (stereo not shown) | 99 | –
FC(F)(F)c1ccc(-c2ccc3c(c2)C2CC3CCCN2C2CCCCC2)cc1 (stereo not shown) | 25 | –
FC(F)(F)c1ccccc1-c1ccc2c(c1)C1CC2CCCN1C1CCCC1 (stereo not shown) | 549 | –
FC(F)(F)c1ccc(-c2ccc3c(c2)C2CC3CCCN2)cc1 (stereo not shown) | 21 | –
CN1CCN(c2ccc3c(c2)C2CC3CCN2C(=O)OCc2ccc(F)cc2)CC1 (racemic) [AMA-1127, (±)-4-Fluorobenzyl-8-(4-methylpiperazin-1-yl)-1,3,4,5-tetrahydro-2H-1,5-methanobenzo[c]azepine-2-carboxylate] | – | neuroprotection against mHTT-induced neuronal toxicity [2]: significant neuroprotection in a dose dependent fashion; intrinsic toxicity [2]: None of these compounds appear to exhibit any intrinsic toxicity; affinity (Ki) for σ2R/TMEM97, in words (σ2R/TMEM97 [3]; rat σ2R/TMEM97): high affinity; selectivity for σ2R/TMEM97 vs σ1R, in words (σ2R/TMEM97 [3]; rat σ2R/TMEM97 vs guinea pig σ1R): good selectivity
FC(F)(F)c1ccc(-c2ccc3c(c2)C2CC3CCCN2C2CCCCC2)cc1 (racemic) [BEA-1687, (±)-2-Cyclohexyl-9-(4-(trifluoromethyl)phenyl)-1,2,3,4,5,6-hexahydro-1,6-methanobenzo[c]azocine] | – | neuroprotection against mHTT-induced neuronal toxicity [2]: significant neuroprotection in a dose dependent fashion; intrinsic toxicity [2]: None of these compounds appear to exhibit any intrinsic toxicity; affinity (Ki) for σ2R/TMEM97, in words (σ2R/TMEM97 [4]): high affinity; selectivity for σ2R/TMEM97 vs σ1R, in words (σ2R/TMEM97 [4]): good
O=C(C1CCN(CCO)CC1)N1CCC2CC1c1cc(-c3ccc(C(F)(F)F)cc3)ccc12 (racemic) [EES-1686, (±)-(1-(2-Hydroxyethyl)piperidin-4-yl)(8-(4-(trifluoromethyl)phenyl)-1,3,4,5-tetrahydro-2H-1,5-methanobenzo[c]azepin-2-yl)methanone] | – | neuroprotection against mHTT-induced neuronal toxicity [2]: significant neuroprotection in a dose dependent fashion; concentration providing significant neuroprotection ([2]; lowest of the series): 10 nM; intrinsic toxicity [2]: None of these compounds appear to exhibit any intrinsic toxicity; affinity (Ki) for σ2R/TMEM97, in words (σ2R/TMEM97 [4]): high affinity; selectivity for σ2R/TMEM97 vs σ1R, in words (σ2R/TMEM97 [4]): good
CCCN1CCC(C(=O)N2CCC3CC2c2cc(-c4ccc(C(F)(F)F)cc4)ccc23)CC1 (racemic) [JJS-1678, (±)-(1-Propylpiperidin-4-yl)(8-(4-(trifluoromethyl)phenyl)-1,3,4,5-tetrahydro-2H-1,5-methanobenzo[c]azepin-2-yl)methanone] | – | affinity (Ki) for σ2R/TMEM97, in words (σ2R/TMEM97 [4]): high affinity; selectivity for σ2R/TMEM97 vs σ1R, in words (σ2R/TMEM97 [4]): good
OCCCN1CCCC2CC1c1cc(-c3ccc(C(F)(F)F)cc3)ccc12 (stereo not shown) [UKH-1114] | – | neuroprotection against mHTT-induced neuronal toxicity [2]: significant neuroprotection in a dose dependent fashion; intrinsic toxicity [2]: None of these compounds appear to exhibit any intrinsic toxicity; pain relief in the SNI model [5]: relieved pain

Second part, led by results:

Ki (σ2R/TMEM97 [1]) [nM] | Compound | also measured
35.4 | O=C(C1CCNCC1)N1CC[C@@H]2CC1c1cc(-c3cccc(OC(F)(F)F)c3)ccc12 | –
37.1 | O=C(C1CCNCC1)N1CC[C@H]2CC1c1cc(-c3cccc(OC(F)(F)F)c3)ccc12 | –
32.3 | O=C(C1CCN(CCO)CC1)N1CCC2CC1c1cc(-c3cccc(C(F)(F)F)c3)ccc12 (stereo not shown) | –
30.4 | CN1CCC(C(=O)N2CCC3CC2c2cc(-c4cccc(OC(F)(F)F)c4)ccc23)CC1 (stereo not shown) | –
35.1 | CN1CCC(C(=O)N2CCC3C[C@@H]2c2cc(-c4ccc(C(F)(F)F)cc4)ccc23)CC1 | –
13.6 | O=C(C1CCN(CCO)CC1)N1CCC2C[C@H]1c1cc(-c3ccc(C(F)(F)F)cc3)ccc12 | –
277 | CS(=O)(=O)c1cccc(-c2ccc3c(c2)C2C[C@H]3CCN2C(=O)C2CCN(CCO)CC2)c1 | –
264 | O=C(C1CCN(CCCO)CC1)N1CC[C@@H]2CC1c1cc(-c3cccc(OC(F)(F)F)c3)ccc12 | –
10.3 | COCCN1CCC(C(=O)N2CCC3C[C@H]2c2cc(-c4ccc(C(F)(F)F)cc4)ccc23)CC1 | –
7.7 | O=C(C1CCN(CCCO)CC1)N1CCC2C[C@H]1c1cc(-c3ccc(C(F)(F)F)cc3)ccc12 | –
30.8 | N[C@H]1CC[C@@H](N2CCC3C[C@H]2c2cc(-c4cccc(C(F)(F)F)c4)ccc23)CC1 | –
7.9 | N[C@H]1CC[C@@H](N2CCC3CC2c2cc(-c4cccc(C(F)(F)F)c4)ccc23)CC1 (stereo partly shown) | –
70.5 | N[C@H]1CC[C@H](N2CCC3CC2c2cc(-c4cccc(C(F)(F)F)c4)ccc23)CC1 (stereo partly shown) | –
6.8 | O=C(C1CCNCC1)N1CCC2CC1c1cc(-c3ccc(C(F)(F)F)cc3)ccc12 (stereo not shown) | –
1.3 | CCCN1CCC(C(=O)N2CCC3CC2c2cc(-c4ccc(C(F)(F)F)cc4)ccc23)CC1 (stereo not shown) | –
5.5 | O=C(C1CCNCC1)N1CCC2CC1c1cc(-c3cccc(C(F)(F)F)c3)ccc12 (stereo not shown) | –
2.3 | CN1CCC(C(=O)N2CCC3CC2c2cc(-c4cccc(C(F)(F)F)c4)ccc23)CC1 (stereo not shown) | –
4.1 | CC(=O)N[C@H]1CC[C@H](N2CCC3CC2c2cc(-c4cccc(C(F)(F)F)c4)ccc23)CC1 (stereo partly shown) | –
16 | O=C(C1CNC1)N1CCC2CC1c1cc(-c3cccc(C(F)(F)F)c3)ccc12 (stereo not shown) | –
8.7 | CN(C)CCC(=O)N1CCC2CC1c1cc(-c3cccc(C(F)(F)F)c3)ccc12 (stereo not shown) | –
4.9 | CNCCC(=O)N1CCC2CC1c1cc(-c3cccc(C(F)(F)F)c3)ccc12 (stereo not shown) | –
62 | FC(F)(F)c1cccc(-c2ccc3c(c2)C2CC3CCCN2C2CCCC2)c1 (stereo not shown) | –
52.5 | O=C(C1CCNCC1)N1CCCC2CC1c1cc(-c3ccc(C(F)(F)F)cc3)ccc12 (stereo not shown) | –
